Test results reported in ChEMBL document CHEMBL5465560, “Selectivity Literature for EUbOPEN Chemogenomic Library” (2024).
One block for each molecule: values may come before it.

Key:
[1] = biological target: Type-1 angiotensin II receptor (Homo sapiens) (UniProt P30556); assay: Selectivity interaction (Eurofins CEREP Diversity Profile (receptors and ion channels)) EUB0000279b AGTR1; settings: at 10 µM
[2] = biological target: Dual specificity mitogen-activated protein kinase kinase 2 (Homo sapiens) (UniProt P36507); assay: Selectivity interaction (SelectScreen profiling (Invitrogen)) EUB0000607a MAP2K2; settings: at 2 µM
[3] = biological target: Casein kinase I isoform gamma-1 (Homo sapiens) (UniProt Q9HCP0); settings: at 10 µM
[4] = biological target: Mitogen-activated protein kinase 14 (Homo sapiens, UniProt Q16539); assay: Selectivity interaction (ActivX KiNativ screen (kinase selectivity in THP-1 cell lysates)) EUB0000639a MAPK14; assay type: subcellular; settings: lysate, at 5 µM
[5] = biological target: Vascular endothelial growth factor receptor 2 (Homo sapiens, UniProt P35968); assay: Selectivity interaction (ProQinase) EUB0000171b KDR
[6] = biological target: Cyclin-dependent kinase 2/cyclin A (Homo sapiens, UniProt P24941); assay: Selectivity interaction (Enyzmatic assay) EUB0000601a CDK2; assay type: protein-complex assay
[7] = biological target: Rho-associated protein kinase 1 (Homo sapiens) (UniProt Q13464); assay: Selectivity interaction (KinomeScan (DiscoverX)) EUB0001049a ROCK1; settings: at 1 µM
[8] = biological target: Vascular endothelial growth factor receptor 1 (Homo sapiens) (UniProt P17948); assay: Selectivity interaction (Kinase panel (DSF assay)) EUB0001558a FLT1
[9] = biological target: T1, 5-hydroxytryptamine receptor 3A (Homo sapiens) (UniProt P46098); assay: Selectivity interaction (Panel of kinases, GPCRs, ion channels and transporters (enzymatic assay)) EUB0000223bCl HTR3A
T1 sequence (whole entry): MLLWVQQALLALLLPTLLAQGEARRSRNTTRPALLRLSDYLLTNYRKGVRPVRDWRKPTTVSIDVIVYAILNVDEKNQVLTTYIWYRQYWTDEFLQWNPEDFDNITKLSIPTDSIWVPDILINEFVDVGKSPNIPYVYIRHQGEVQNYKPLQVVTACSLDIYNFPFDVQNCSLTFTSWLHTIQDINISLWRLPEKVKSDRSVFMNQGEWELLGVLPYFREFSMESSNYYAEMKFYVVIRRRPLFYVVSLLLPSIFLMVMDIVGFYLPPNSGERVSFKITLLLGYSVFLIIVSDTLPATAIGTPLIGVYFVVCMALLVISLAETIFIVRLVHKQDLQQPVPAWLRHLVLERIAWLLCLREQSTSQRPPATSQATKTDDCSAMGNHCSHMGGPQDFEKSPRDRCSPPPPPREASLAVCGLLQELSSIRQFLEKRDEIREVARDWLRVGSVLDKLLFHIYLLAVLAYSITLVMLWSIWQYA

[10] = biological target: T2, Inhibitor of nuclear factor kappa-B kinase subunit beta (Homo sapiens) (UniProt O14920); assay: Selectivity interaction (KinomeScan (DiscoverX)) EUB0000655a IKBKB; settings: at 10 µM
T2 sequence (whole entry): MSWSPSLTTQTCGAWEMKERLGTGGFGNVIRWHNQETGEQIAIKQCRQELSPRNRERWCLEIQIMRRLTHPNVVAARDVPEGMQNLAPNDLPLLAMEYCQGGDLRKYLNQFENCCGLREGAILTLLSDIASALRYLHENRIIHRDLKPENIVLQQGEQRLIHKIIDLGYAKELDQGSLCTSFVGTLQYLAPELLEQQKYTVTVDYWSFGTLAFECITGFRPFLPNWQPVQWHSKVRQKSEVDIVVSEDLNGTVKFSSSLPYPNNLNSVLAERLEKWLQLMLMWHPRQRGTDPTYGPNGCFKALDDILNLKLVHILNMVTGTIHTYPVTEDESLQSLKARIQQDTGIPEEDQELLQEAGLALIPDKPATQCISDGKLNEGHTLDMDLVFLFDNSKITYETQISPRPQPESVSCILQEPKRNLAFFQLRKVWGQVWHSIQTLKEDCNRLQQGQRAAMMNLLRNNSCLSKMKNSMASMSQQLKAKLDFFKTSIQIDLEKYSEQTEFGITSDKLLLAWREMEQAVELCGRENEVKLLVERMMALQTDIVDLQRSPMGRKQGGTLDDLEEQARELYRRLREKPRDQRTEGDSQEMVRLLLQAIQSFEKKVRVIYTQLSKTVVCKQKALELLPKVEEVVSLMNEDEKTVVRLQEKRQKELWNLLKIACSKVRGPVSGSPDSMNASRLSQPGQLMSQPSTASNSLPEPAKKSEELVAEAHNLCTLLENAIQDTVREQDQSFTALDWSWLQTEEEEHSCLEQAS

[11] = biological target: Death-associated protein kinase 1 (Homo sapiens, UniProt P53355); assay: Selectivity interaction (KinomeScan (DiscoverX)) EUB0000045b DAPK1
[12] = biological target: T3, G protein-coupled receptor kinase 3 (Homo sapiens) (UniProt P35626); assay: Selectivity interaction (KinomeScan (DiscoverX)) EUB0001079a ADRBK2; settings: at 1 µM
T3 sequence (whole entry): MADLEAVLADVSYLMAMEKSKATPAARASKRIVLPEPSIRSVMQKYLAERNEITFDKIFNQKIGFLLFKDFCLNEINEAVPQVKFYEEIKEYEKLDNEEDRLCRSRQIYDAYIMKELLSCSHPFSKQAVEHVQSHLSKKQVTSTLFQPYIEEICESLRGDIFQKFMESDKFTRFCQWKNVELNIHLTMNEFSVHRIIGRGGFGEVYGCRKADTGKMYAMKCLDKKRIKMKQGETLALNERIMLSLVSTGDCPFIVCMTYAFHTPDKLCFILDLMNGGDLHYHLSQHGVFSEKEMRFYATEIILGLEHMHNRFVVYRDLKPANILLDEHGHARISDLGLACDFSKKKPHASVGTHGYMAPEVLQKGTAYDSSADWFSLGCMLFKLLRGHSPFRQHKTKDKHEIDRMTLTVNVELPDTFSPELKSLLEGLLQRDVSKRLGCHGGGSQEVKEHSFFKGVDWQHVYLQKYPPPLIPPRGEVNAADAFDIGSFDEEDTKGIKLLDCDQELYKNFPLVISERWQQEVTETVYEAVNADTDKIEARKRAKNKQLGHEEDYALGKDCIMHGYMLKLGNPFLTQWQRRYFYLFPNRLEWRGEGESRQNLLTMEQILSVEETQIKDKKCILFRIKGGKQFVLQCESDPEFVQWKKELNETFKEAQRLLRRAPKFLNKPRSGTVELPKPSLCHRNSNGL

[13] = biological target: Dual specificity tyrosine-phosphorylation-regulated kinase 1A (Homo sapiens, UniProt Q13627); assay: Selectivity interaction (KinomeScan (DiscoverX)) EUB0001550a DYRK1A; settings: at 1 µM
[14] = biological target: Tyrosine-protein kinase receptor Tie-1 (Homo sapiens) (UniProt P35590); assay: Selectivity interaction (KinomeScan (DiscoverX)) EUB0000092b TIE1; settings: at 10 µM
[15] = biological target: Tyrosine-protein kinase ABL1 (Homo sapiens, UniProt P00519); assay: Selectivity interaction (KinomeScan (DiscoverX)) EUB0000618a ABL1; settings: at 10 µM

Chain of Death-associated protein kinase 1 (P53355 whole entry, looked up): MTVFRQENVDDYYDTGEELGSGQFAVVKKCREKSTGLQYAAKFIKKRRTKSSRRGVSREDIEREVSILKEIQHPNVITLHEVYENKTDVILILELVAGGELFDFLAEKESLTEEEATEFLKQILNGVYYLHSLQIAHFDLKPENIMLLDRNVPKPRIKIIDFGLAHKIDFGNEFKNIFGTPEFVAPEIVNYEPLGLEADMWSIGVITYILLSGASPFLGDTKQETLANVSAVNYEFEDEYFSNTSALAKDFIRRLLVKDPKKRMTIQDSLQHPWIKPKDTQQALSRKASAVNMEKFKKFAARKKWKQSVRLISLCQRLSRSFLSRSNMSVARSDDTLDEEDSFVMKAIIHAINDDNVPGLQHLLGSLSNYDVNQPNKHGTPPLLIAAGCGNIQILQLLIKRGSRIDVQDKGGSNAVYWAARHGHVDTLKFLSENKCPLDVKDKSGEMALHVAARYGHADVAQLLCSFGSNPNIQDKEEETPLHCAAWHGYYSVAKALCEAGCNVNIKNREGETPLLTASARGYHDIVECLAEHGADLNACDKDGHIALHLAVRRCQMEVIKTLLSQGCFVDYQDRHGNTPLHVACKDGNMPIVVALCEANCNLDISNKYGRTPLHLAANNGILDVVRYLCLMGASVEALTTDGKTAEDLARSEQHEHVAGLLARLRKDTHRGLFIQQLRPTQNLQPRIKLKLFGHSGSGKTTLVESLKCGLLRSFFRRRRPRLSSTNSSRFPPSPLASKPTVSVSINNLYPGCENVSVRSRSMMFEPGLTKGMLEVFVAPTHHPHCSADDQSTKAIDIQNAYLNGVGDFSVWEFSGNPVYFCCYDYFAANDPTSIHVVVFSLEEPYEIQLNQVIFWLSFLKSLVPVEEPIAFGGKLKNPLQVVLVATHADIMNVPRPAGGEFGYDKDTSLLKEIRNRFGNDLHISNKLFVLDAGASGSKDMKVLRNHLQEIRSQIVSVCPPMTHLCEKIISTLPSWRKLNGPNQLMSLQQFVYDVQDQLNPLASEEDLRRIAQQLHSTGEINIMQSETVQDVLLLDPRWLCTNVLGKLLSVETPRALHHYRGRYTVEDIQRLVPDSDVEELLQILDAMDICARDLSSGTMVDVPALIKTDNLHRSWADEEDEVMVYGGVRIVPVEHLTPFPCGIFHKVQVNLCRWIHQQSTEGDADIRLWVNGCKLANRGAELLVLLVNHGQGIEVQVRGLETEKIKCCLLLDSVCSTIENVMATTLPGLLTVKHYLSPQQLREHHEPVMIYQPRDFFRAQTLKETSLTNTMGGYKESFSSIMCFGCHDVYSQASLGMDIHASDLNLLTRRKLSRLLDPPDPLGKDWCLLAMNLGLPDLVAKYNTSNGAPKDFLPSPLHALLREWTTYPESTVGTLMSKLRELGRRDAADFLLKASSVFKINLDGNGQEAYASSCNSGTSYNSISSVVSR
Chain of Vascular endothelial growth factor receptor 2 (P35968 whole entry): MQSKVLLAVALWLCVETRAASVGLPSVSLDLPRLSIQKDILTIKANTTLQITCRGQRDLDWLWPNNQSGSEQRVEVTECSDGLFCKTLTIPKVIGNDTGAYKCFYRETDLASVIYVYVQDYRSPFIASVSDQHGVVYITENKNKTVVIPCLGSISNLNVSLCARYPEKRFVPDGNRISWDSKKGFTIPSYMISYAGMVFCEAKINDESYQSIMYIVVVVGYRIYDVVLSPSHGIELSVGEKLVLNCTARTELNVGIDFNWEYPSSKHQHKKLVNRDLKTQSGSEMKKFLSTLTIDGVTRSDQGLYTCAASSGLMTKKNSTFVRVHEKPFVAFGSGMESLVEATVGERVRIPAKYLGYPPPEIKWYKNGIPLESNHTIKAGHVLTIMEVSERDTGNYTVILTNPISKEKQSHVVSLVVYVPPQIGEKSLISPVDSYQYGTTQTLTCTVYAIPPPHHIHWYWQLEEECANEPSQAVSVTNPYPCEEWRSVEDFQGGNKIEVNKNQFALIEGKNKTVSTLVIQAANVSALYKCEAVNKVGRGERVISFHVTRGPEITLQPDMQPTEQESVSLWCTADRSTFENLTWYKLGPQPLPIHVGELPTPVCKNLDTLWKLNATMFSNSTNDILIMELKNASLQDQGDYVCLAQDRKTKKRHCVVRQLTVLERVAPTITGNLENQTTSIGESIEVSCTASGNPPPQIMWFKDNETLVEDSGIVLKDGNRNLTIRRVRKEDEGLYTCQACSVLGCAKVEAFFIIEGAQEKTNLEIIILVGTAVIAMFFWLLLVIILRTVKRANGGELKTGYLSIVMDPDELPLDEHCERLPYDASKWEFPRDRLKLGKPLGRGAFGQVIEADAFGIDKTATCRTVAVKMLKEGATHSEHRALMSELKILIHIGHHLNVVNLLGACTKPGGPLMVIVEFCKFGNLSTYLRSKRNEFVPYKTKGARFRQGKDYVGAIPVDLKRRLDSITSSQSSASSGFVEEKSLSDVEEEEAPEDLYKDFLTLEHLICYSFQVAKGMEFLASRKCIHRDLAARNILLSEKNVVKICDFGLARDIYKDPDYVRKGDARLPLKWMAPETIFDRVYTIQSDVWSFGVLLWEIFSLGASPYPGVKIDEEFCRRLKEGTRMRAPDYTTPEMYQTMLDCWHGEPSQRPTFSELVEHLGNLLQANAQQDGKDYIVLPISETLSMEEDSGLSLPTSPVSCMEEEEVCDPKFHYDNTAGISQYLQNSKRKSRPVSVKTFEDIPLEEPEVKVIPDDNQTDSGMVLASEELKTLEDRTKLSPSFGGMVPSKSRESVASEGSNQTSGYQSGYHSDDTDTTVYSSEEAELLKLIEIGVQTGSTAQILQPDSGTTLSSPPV
Chain of Rho-associated protein kinase 1 (Homo sapiens) (Q13464 2-1354 limits assumed): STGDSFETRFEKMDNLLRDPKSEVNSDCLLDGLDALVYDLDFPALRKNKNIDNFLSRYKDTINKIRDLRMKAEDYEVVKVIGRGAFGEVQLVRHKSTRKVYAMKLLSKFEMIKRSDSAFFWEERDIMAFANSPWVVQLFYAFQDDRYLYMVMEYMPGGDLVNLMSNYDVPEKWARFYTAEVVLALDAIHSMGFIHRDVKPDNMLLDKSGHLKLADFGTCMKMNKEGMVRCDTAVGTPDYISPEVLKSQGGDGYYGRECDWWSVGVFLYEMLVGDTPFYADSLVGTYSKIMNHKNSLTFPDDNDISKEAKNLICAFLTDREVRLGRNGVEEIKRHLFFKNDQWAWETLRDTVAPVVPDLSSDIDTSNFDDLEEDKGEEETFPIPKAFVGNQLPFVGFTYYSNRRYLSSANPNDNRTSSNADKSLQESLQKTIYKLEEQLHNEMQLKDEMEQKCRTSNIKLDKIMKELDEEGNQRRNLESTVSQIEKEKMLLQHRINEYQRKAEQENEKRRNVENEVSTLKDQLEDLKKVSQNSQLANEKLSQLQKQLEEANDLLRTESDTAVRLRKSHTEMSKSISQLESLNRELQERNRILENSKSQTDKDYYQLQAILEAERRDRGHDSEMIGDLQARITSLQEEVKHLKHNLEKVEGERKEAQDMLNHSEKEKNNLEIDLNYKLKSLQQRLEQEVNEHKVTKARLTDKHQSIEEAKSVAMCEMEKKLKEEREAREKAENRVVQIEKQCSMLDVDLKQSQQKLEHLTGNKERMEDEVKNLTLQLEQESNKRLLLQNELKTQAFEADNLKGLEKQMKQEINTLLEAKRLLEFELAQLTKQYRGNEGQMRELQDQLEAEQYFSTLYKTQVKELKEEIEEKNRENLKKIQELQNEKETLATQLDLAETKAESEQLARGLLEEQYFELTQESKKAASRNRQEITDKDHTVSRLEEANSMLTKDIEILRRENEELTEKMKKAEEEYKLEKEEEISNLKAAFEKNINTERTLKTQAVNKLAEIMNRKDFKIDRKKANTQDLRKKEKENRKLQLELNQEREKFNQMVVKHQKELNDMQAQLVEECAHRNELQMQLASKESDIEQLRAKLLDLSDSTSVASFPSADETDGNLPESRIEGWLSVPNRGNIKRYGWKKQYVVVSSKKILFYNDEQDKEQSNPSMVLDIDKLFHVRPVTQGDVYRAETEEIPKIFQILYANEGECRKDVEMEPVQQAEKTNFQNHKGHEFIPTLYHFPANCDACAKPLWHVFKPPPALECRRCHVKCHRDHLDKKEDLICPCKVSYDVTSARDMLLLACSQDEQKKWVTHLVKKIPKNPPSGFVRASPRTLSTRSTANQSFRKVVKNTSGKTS
Chain of Dual specificity mitogen-activated protein kinase kinase 2 (Homo sapiens) (P36507 whole entry, canonical isoform): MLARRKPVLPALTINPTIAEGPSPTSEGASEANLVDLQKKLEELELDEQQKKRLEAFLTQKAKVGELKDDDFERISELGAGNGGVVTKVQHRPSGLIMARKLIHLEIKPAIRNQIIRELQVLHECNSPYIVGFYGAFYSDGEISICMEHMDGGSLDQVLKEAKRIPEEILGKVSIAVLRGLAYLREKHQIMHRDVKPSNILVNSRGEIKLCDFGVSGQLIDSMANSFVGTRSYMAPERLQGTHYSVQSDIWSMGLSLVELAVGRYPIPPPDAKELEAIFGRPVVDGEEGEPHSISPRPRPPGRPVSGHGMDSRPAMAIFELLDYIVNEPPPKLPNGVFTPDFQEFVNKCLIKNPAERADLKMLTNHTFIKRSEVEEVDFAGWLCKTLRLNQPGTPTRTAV
Chain of Casein kinase I isoform gamma-1 (Homo sapiens) (Q9HCP0 whole entry, looked up, canonical isoform): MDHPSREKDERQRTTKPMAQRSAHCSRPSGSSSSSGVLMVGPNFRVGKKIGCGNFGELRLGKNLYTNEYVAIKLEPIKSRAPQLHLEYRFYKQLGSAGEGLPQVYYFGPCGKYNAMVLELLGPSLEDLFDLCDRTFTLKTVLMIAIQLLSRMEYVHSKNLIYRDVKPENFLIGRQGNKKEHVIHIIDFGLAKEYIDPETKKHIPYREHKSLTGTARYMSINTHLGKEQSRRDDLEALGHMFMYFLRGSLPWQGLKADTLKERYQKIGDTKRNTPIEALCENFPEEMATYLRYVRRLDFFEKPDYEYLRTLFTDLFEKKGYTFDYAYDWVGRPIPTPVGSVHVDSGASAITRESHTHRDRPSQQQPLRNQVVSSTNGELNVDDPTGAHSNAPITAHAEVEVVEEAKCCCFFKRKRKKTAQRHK

% of control [1]: 91%
SMILES: CC(=O)c1cc(-c2ccccc2OCC2CC2)c2ncccn12

SMILES: CNC(=O)Nc1ccc(-c2nc(N3CC4CCC(C3)O4)c3cnn(C4CCC5(CC4)OCCO5)c3n2)cc1
% of inhibition [2]: 2%

% of control [3]: 100%
SMILES: CCN(CC)CCCCNc1ncc2cc(-c3cc(OC)cc(OC)c3)c(NC(=O)NC(C)(C)C)nc2n1

% of inhibition [4]: -3.8%
SMILES: CC[C@@H]1[C@H](F)C(=O)N[C@@H]1COc1nccc2cc(C(N)=O)c(OC)cc12 [ZIMLOVISERTIB]

% of control ([5]; at 1 µM): 78%
% of control ([5]; at 5 µM): 50%
SMILES: C=CC(=O)Nc1cccc(C(=O)Nc2ccc(Nc3cc(-c4[nH]c(SC)nc4C)ccn3)cc2)c1

IC50 [6]: > 10 µM
SMILES: CCc1cc(Nc2nccc(-c3c(-c4ccc(OC)c(C(=O)Nc5c(F)cccc5F)c4)nc4ccccn34)n2)c(OC)cc1N1CCC(N2CCN(S(C)(=O)=O)CC2)CC1

SMILES: COc1cc(Nc2nc(C)cc(-c3cnn4nc(OC)ccc34)n2)cc(C(F)(F)F)c1
% of control [7]: 99%

SMILES: CC(C)(O)[C@H](F)CN1Cc2cc(NC(=O)c3cnn4cccnc34)c(N3CCOCC3)cc2C1=O
dTM [8]: 3.3 K

SMILES: COc1cc(C(=O)N2CC[C@@H](O)[C@@H](N)C2)cc2nc(-c3cc4ccccc4n3CC3CC3)n(C)c12
pXC50 [9]: 4.3 M

SMILES: CN(C)CCOc1ccc(-c2nc(-c3ccncc3)c(-c3ccc4c(c3)CC/C4=N\O)[nH]2)cc1
% of control [10]: 100%

SMILES: C=CC(=O)Nc1cc(-n2c(=O)ccc3cnc4ccc(-c5ccc(NS(C)(=O)=O)cc5)cc4c32)ccc1C
% of control ([11]; at 1 µM): 96%
% of control ([11]; at 10 µM): 61%

SMILES: Nc1cnc(N2CCc3cc(S(=O)(=O)Nc4c(F)cc(Cl)cc4F)cc(N4CCCC4=O)c32)nc1 [TP-020n]
% of control [12]: 100%

% of control [13]: 9.9%
SMILES: CN(C)CC#Cc1ccc2[nH]c3c(c2c1)-c1nc(N)ncc1CCC3

SMILES: CCC(=O)N1CCN(c2ccc(-n3c(=O)ccc4cnc5ccc(-c6cnc7ccccc7c6)cc5c43)cc2C(F)(F)F)CC1
% of control [14]: 100%

SMILES: O[C@H]1CC[C@H](Nc2ncc3nc(Nc4c(F)cc(F)cc4F)n([C@H]4CCOC4)c3n2)CC1
% of control [15]: 34%
